Columns and labels:
IL-6 = test: UVB-mediated induction of IL-6 in pterygium epithelial cells, sandwich immunoassay of supernatants; type: cell-based, human; conditions: for IL-6 production post-radiation (effect in words): 10 μM PD98059, 1 μM SB202190, 1 μM SB203580, 1 μM hydrocortisone
Experimental: (§1) Pterygium-derived epithelial cells (PEC) were seeded at 1×10^6 cells in 100 mm tissue culture dishes (Corning, N.Y.) or at a density of 1.5×10^5 cells per well in 6-well plates (Nunc, Denmark) and grown in the presence of 10% FBS/EMEM. Once cells reached semi-confluence, the medium was aspirated, cells washed three times with sterile PBS, and left in serum-free medium for 16 hrs as previously described (Di Girolamo N., et al. Prog Retin Eye Res. 2004; 23:195-228), (Di Girolamo N., et al., Invest Opthalmol Vis Sci. 2000; 41:671-679), (Di Girolamo N., et al., Invest Opthalmol Vis Sci. 2002; 43:3430-3437), (Nolan T, et al., Am J Pathol. 2003; 162:567-574), (Di Girolamo., et al., Invest Ophthalmol Vis Sci. 2003; 44:4705-4714). In some experiments, cells were pre-incubated with selective inhibitors of ERK1/2, JNK, and p38 MAPKs (Calbiochem, Calif.). These included 10 μM PD98059, 1 μM SB202190, and 1 μM SB203580, respectively. In addition, 1 μM hydrocortisone (Sigma, St Louis, […].) was added to some cells as a broad-spectrum negative regulator of cytokine production.
(§2) To determine whether surface receptors were involved in transmitting the UVB signal, some cells were pre-incubated for 1 hr with 0.1 μM PD153035 (Calbiochem), an inhibitor of the tyrosine kinase activity of the EGFR or with 0.1 μM AG1295 (Calbiochem) an inhibitor of the tyrosine kinase activity of the PDGFR. While in other experiments, cells were pre-treated with RA (0-0.1 μM; Sigma) or IFN-α (0-15,000 U; PBL Biomedical Laboratories, Piscataway, N.J.). This medium was replaced with PBS and monolayers irradiated with 20 mJ/cm^2 of UVB using FL20SE bulbs (Philips, Sydney, Australia) as previously reported (Di Girolamo N., et al. Prog Retin Eye Res. 2004; 23:195-228), (Di Girolamo N., et al., Invest Opthalmol Vis Sci. 2002; 43:3430-3437), (Nolan T, et al., Am J Pathol. 2003; 162:567-574), (Di Girolamo., et al., Invest Ophthalmol Vis Sci. 2003; 44:4705-4714). UVB light intensity was monitored and calibrated prior to each experiment with the aid of a radiometer IL1400A (International Light, Newburyport, Mass.). After each exposure, PEC were rinsed once with PBS and placed in fresh serum-free medium with the respective compounds, then incubated for a further 48 hrs. Supernatants were collected, cleared of any cell debris by centrifugation, and stored frozen in small aliquots at −70° C. The compounds used in these experiments were non-toxic at all doses tested.
(§3) Human IL-6, IL-8, and VEGF (Quantikine™; R&D Systems, Minneapoli, Minn.) were quantified using sandwich immunoassays. Cytokines in supernatants from control (mock irradiated), or UVB-exposed PEC were captured on antibody-coated 96-well plates, and detection performed precisely as directed by the manufacturer. The optical density of the reaction product was read at the appropriate wavelength using a microplate reader (Spectramax™ Plus, Molecular Devices, Sunnyvale, Calif.).
(§4) Cytokine levels in the culture supernatants were expressed as mean±standard deviation. Difference in cytokine level between control and UV treated cells was assessed by one-way analysis of variance, followed by the Newman-Keuls test for multiple comparisons of treatment groups with the control group. A commercial software package (Prism; GraphPad Software, San Diego, Calif.) was used for analysis.

IL-8 = test: UVB-mediated induction of IL-8 in pterygium epithelial cells, sandwich immunoassay of supernatants; type: cell-based, human; conditions: for IL-8 production post-radiation (effect in words) / IL-8 levels: 20 mJ/cm^2 UVB; for IL-8 production post-radiation (effect in words): 10 μM PD98059, 1 μM SB202190, 1 μM SB203580, 1 μM hydrocortisone; for IL-8 levels: supernatant after 48 hrs, UVB alone 166.6±22.5 pg/ml
Experimental: as §1, §2, §3, §4

VEGF = test: UVB-mediated induction of VEGF in pterygium epithelial cells, sandwich immunoassay of supernatants; type: cell-based, human; conditions: for VEGF production post-radiation (effect in words) / VEGF production: 20 mJ/cm^2 UVB; for VEGF production post-radiation (effect in words): 10 μM PD98059, 1 μM SB202190, 1 μM SB203580, 1 μM hydrocortisone; for VEGF production: PEC pre-incubated 1 hr with 0.1 μM inhibitor, supernatant after 48 hrs, UVB alone 166.5±11.0 pg/ml
Experimental: as §1, §2, §3, §4

[1] = topical ocular use; cited from earlier work
pterygium = conditions: retrospective study of 164 patients, pterygium surgery with associated treatment; cited from earlier work
[2] = PEC, single dose of UVB, several concentrations: RA 0-0.1 μM, IFN-α 0-15,000 U

Molecule | IL-6 production post-radiation (effect in words) (IL-6; PEC, 20 mJ/cm^2 UVB) | IL-8 production post-radiation (effect in words) (IL-8; PEC) | VEGF production post-radiation (effect in words) (VEGF; PEC) | also measured
COc1cccc(-c2cc(=O)c3ccccc3o2)c1N [PD98059] | significantly abrogated | significantly abrogated | only partially, but significantly reduced | –
C[S+]([O-])c1ccc(-c2nc(-c3ccncc3)c(-c3ccc(F)cc3)[nH]2)cc1 (stereo not shown) [SB203580] | significantly abrogated | significantly abrogated | only partially, but significantly reduced | –
CO[C@@]12[C@H](COC(N)=O)C3=C(C(=O)C(C)=C(N)C3=O)N1C[C@@H]1N[C@@H]12 [mitomyacin C] | – | – | – | complications [1]: corneoscleral melting, cataract and secondary glaucoma; pterygium regrowth (pterygium): 8.74%
IFN-α | – | – | – | IL-6 protein production (effect in words) (IL-6; [2]): dose-dependently inhibited; IL-8 protein production (effect in words) (IL-8; [2]): dose-dependently inhibited; UVB-mediated induction of VEGF (effect in words) (VEGF; [2]): no significant inhibitory effect
C[C@]12CCC(=O)C=C1CC[C@@H]1[C@@H]2[C@@H](O)C[C@@]2(C)[C@H]1CC[C@]2(O)C(=O)CO [Hydrocortisone, hydrocortisone] | near control levels | near control levels | near control levels | –
COc1cc2ncnc(Nc3cccc(Br)c3)c2cc1OC [PD153035] | – | – | – | IL-8 levels (IL-8; PEC pre-incubated 1 hr with 0.1 μM inhibitor): 74.4 ± 23.6 pg/mL; VEGF production (VEGF): 109.1 ± 1.5 pg/mL
Oc1ccc(-c2nc(-c3ccncc3)c(-c3ccc(F)cc3)[nH]2)cc1 [SB202190] | significantly abrogated | significantly abrogated | only partially, but significantly reduced | –
Cc1cc2ncc(-c3ccccc3)nc2cc1C [AG1295] | – | – | – | IL-6 levels (IL-6; PEC pre-incubated 1 hr with 0.1 μM inhibitor, 20 mJ/cm^2 UVB, supernatant after 48 hrs, UVB alone 356.2±32.1): 217 ± 42 pg/mL; IL-8 levels (IL-8; PEC pre-incubated 1 hr with 0.1 μM PD153035 (EGFR inhibitor) or 0.1 μM AG1295 (PDGFR inhibitor)): 174 ± 60.3 pg/mL; VEGF production (VEGF): 132.7 ± 8.0 pg/mL
